# Reference: patent US9034863B2, “Compositions and methods for inhibiting entry of a hepatic virus” (The Board of Trustees of the University of Illinois, priority 2008, dated 2015)
# “Also recorded” adds a separate entry of the source.
# How the values were obtained:
# [1] = system: HCV genotype 2a subgenomic replicon; test: HCV sg2a replicon RNA replication in Huh7 cells, RT-qPCR; assay type: cell-based, Hepatitis C virus (HCV); conditions: 72 hours post-treatment
# Description: Huh7 cells, also known as Huh7/scr cells, are well-known in the art (Zhong, et al. (2005) Proc. Natl. Acad. Sci. USA 102, 9294-99; Gastaminza, et al. (2006) J. Virol. 80:11074-81; Zhong, et al. (2006) J. Virol. 80:11082-93; Sainz et al. (2009) PLoS ONE 4:e6561). […] The HCV sg2a replicon was established as previously described (Uprichard, et al. (2006) Virol. J. 3:89). Briefly the HCV genotype 2a subgenomic replicon RNA (psgJFH1; Kato, et al. (2003) Gastroenterology 125:1808-17) was XbaI linearized, in vitro transcribed using […] T7 (Ambion, Austin, Tex.) and transfected into cells using a modified electroporation protocol (Krieger, et al. (2001) J. Virol. 75(10):4614-24). All cells were cultured in complete Dulbecco's modified Eagle's medium (cDMEM) (Hyclone, Logan, Utah) supplemented with 10% fetal bovine serum (FBS) (Hyclone), 100 units/ml penicillin, […] streptomycin, and 2 mM L-glutamine (Gibco Invitrogen, Carlsbad, Calif.) and 500 μg/ml geneticin ((Invitrogen) for HCV replicon cells only).
# Total cellular RNA was purified using an ABI PRISM™ 6100 Nucleic Acid PrepStation (Applied Biosystems), as per the manufacturer's instructions. […] HCV JFH-1 and human GAPDH RNA transcript levels were determined relative to a standard curve derived from serial dilutions of plasmid containing the JFH-1 HCV cDNA or the human GAPDH coding sequence, respectively. […]
# [2] = system: HCVcc; test: Secretion of infectious HCVcc, extracellular infectivity titration; assay type: cell-based, Hepatitis C virus (HCV); conditions: 30 μM, 24-96 hours post-treatment
# Description: Cell supernatants were serially diluted 10-fold in cDMEM and 100 μl was used to infect, in triplicate, 4×10^3 naïve Huh7 cells per well in 96-well plates (BD Biosciences). The inoculum was incubated with cells for 24 hours at 37° C. and then overlayed with 150 μl complete DMEM containing 0.4% methylcellulose (w/v) (Fluka BioChemika, Switzerland) to give a final concentration of 0.25% methylcellulose. Seventy-two hours post-infection, medium was removed, cells were fixed with 4% paraformaldehyde (Sigma) and immunohistochemical staining for HCV E2 was performed. […] The HCV E2 glycoprotein was detected by incubation at room temperature with 1×PBS containing 0.5% (v/v) TRITON X-100 and 3% (w/v) BSA and a 1:500 dilution of the human monoclonal anti-HCV E2 antibody C1. Bound C1 was subsequently detected by a 1 hour incubation with a 1:1000 dilution of an HRP-conjugated anti-human antibody (Pierce, Rockford, Ill.) followed by a 30 minute incubation with an AEC detection substrate (BD Biosciences). […] Viral infectivity titers are expressed as FFU per milliliter of supernatant (FFU/ml), determined by the average number of E2-positive foci detected in triplicate samples at the highest HCV-positive dilution.
# Huh7 cultures were inoculated with HCVcc at an MOI of 0.01 FFU cell-1. […] Infectivity titers are expressed as mean FFU/ml±SD for triplicate samples.
# [3] = system: HCV; test: HCV infection initiation in chimeric mice transplanted with human hepatocytes; assay type: in vivo
# [4] = system: HCV genotype 1b subgenomic replicon; test: HCV sg1b replicon RNA replication in Huh7 cells, RT-qPCR; assay type: cell-based, Hepatitis C virus (HCV); conditions: increasing doses, 72 hours
smiles,measurement,setting,value
"O=C1[C@H](CC[C@H](O)c2ccc(F)cc2)[C@@H](c2ccc(O)cc2)N1c1ccc(F)cc1 [ezetimibe, 1-(4-fluorophenyl)-(3R)-[3-(4-fluorophenyl)-(3S)-hydroxypropyl]-(45)-(4-hydroxyphenyl)-2-azetidinone]",sg2a HCV RNA levels,[1],did not inhibit HCV subgenomic RNA replication; also recorded: no significant reduction
same,secretion of infectious HCVcc (infectivity titers),[2],did not inhibit secretion of infectious HCVcc
same,HCV infection initiation,[3],inhibits HCV infection initiation
same,sg1b HCV RNA steady-state levels,[4],did not inhibit HCV subgenomic RNA replication; also recorded: no significant reduction
